Consider 17 molecules from patent US9676721B2, “Compounds and compositions for the inhibition of NAMPT” (FORMA TM, LLC, priority 2010, dated 2017).

The term IC50 denotes the point on the concentration scale where inhibition reaches its midpoint.

One assay has as its target NAMPT (Homo sapiens (Human), UniProt P43490). Briefly: Biochemical Inhibition Assay (NAMPT enzymatic reaction, NMN by mass spectrometry). The conditions noted are these: recombinant His-tagged NAMPT 33 nM, 1 μM NAM, 30 minutes; read-out: Biochem IC50. The method in brief:
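His-tagged human NAMPT from E. coli in 50 mM Hepes pH 7.5, 50 mM NaCl, 5 mM MgCl2, 1 mM THP. Product NMN quantified by RapidFire ESI mass spectrometry, normalised to L-cystathionine internal control and background-subtracted; % inhibition converted to IC50.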

The test system of assay [1] is A2780 cells. As to the kind of experiment: In Vivo Xenograft Studies. The note with it: A2780 xenograft in C.B-17 scid mice, p.o. BID for 5 or 10 days. The procedure:
In Vivo Xenograft Studies: […] The compounds were formulated in 60:30:10 PEG-400:D5W: Ethanol and administered p.o., at the dose volume of 10 ml/kg BID for a duration of 5 or 10 days. The dose used for efficacy was selected from the MTD (Maximum Tolerated Dose) study. Mice were weighed and tumors measured using vernier calipers every alternate day. Tumor volume was calculated according to the formula (length×width^2)/2. All animal work was approved by the Institutional Animal Care and Use Committee of Biological Resource Centre, Singapore.

For assay [2], the system named is A2780 cells. As to the kind of experiment: In-Vitro Cell Proliferation Assay (SRB). It counts as cell-based. The note with it: Homo sapiens, A2780, 72 h. The procedure, abridged:
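A2780 cells treated 72 h at 37 °C, 5% CO2 with serially diluted compound, 0.1% DMSO final. Viable cells by sulforhodamine B staining after TCA fixation, absorbance 570 nm, background-subtracted for % inhibition and IC50; specificity checked by co-addition of NAM or NMN.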

The next assay has as its system tumor cell lines. The conditions noted are these: broad range of tumor cell lines; cited from earlier work.
The subject of assay [3] is murine renal cell carcinoma. The note with it: cited from earlier work.
A further assay deals with THP-1 leukemia cell line. The note with it: cited from earlier work.
A further assay deals with HepG2 cells. The conditions noted are these: cited from earlier work.
The next assay concerns mouse mammary carcinoma. The conditions noted are these: mouse mammary carcinoma model; cited from earlier work.
For a further assay, the system named is K562 leukemia cell line. The note with it: cited from earlier work.

Chain of NAMPT (P43490 whole entry): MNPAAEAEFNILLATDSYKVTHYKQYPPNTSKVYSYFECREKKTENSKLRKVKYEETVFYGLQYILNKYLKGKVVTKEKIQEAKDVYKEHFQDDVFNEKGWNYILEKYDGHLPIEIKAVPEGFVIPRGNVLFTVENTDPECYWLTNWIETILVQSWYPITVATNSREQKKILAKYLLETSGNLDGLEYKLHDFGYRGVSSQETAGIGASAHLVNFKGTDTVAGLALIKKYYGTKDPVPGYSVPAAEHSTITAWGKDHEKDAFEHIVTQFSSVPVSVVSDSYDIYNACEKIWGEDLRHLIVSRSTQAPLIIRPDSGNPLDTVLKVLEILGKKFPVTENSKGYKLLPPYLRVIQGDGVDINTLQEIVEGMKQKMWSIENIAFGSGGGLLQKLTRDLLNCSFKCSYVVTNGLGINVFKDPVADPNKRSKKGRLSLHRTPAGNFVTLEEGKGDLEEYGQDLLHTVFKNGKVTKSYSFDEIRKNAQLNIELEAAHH

As for `CCOc1ccccc1S(=O)(=O)c1ccc(CNC(=NC#N)Nc2ccncc2)cc1` [2-cyano-1-({4-[(2-ethoxybenzene)sulfonyl]phenyl}methyl)-3-(pyridin-4-yl)guanidine], the IC50 at NAMPT came out at 7.1 nM; in the assay with A2780 cells [2], 3.5 nM. Further, in the assay on A2780 cells [1], the “effect on tumor growth” value is on record as “delayed tumor growth”.
Turning to `N#C/N=C(\NCc1ccc(S(=O)(=O)c2ccc(F)cc2)cc1)Nc1ccncc1` [2-cyano-3-({4-[(4-fluorobenzene)sulfonyl]phenyl}methyl)-1-(pyridin-4-yl)guanidine], the half-inhibitory concentration (IC50) amounted to 2 nM on NAMPT and 13 nM with A2780 cells [2].
For `N#C/N=C(\NCc1ccc(S(=O)(=O)N2CC3CCC(C2)O3)cc1)Nc1ccncc1` [2-cyano-3-[(4-{8-oxa-3-azabicyclo[3.2.1]octane-3-sulfonyl}phenyl)methyl]-1-(pyridin-4-yl)guanidine] the same measures were 3 nM and 11 nM.
On to `CN(C)C(=O)c1cc(F)cc(S(=O)(=O)c2ccc(CNC(=NC#N)Nc3ccncc3)cc2)c1` [3-[(4-{[2-cyano-3-(pyridin-4-yl)carbamimidamido]methyl}benzene)sulfonyl]-5-fluoro-N,N-dimethylbenzamide], for which the half-maximal inhibitory concentration (IC50) came out at 4.6 nM on NAMPT and 12.8 nM in the assay on A2780 cells [2].
Consider `CCN(CC)C(=O)c1ccc(F)c(S(=O)(=O)c2ccc(CNC(=NC#N)Nc3ccncc3)cc2)c1` [3-[(4-{[2-cyano-3-(pyridin-4-yl)carbamimidamido]methyl}benzene)sulfonyl]-N,N-diethyl-4-fluorobenzamide], for which the half-inhibitory concentration (IC50) at NAMPT is 17.7 nM; in the assay with A2780 cells [2] it was 54.2 nM.
Taken in the same sequence, the figures for `CN(C)C(=O)c1cccc(S(=O)(=O)c2ccc(CNC(=NC#N)Nc3ccncc3)cc2)c1` [3-[(4-{[2-cyano-3-(pyridin-4-yl)carbamimidamido]methyl}benzene)sulfonyl]-N,N-dimethylbenzamide] were 3.4 nM and 64 nM.
Turning to `CC(C)NC(=O)c1cccc(S(=O)(=O)c2ccc(CNC(=NC#N)Nc3ccncc3)cc2)c1` [3-[(4-{[2-cyano-3-(pyridin-4-yl)carbamimidamido]methyl}benzene)sulfonyl]-N-(propan-2-yl)benzamide], the figures for the 50% inhibitory concentration (IC50) at NAMPT and in the assay on A2780 cells [2] were 4.3 nM and 16.9 nM, respectively.
As to `N#CN=C(NCc1ccc(S(=O)(=O)c2cccc(C(=O)NC3CCCC3)c2)cc1)Nc1ccncc1` [3-[(4-{[2-cyano-3-(pyridin-4-yl)carbamimidamido]methyl}benzene)sulfonyl]-N-cyclopentylbenzamide], the 50% inhibitory concentration (IC50) on NAMPT amounted to 6.6 nM; with A2780 cells [2], 28.3 nM.
As for `N#CN=C(NCc1ccc(S(=O)(=O)c2cccc(C(=O)NC3CC3)c2)cc1)Nc1ccncc1` [3-[(4-{[2-cyano-3-(pyridin-4-yl)carbamimidamido]methyl}benzene)sulfonyl]-N-cyclopropylbenzamide], the values for the IC50 on NAMPT and in the assay with A2780 cells [2] were 2.2 nM and 20 nM, respectively.
Regarding `CCNC(=O)c1cccc(S(=O)(=O)c2ccc(CNC(=NC#N)Nc3ccncc3)cc2)c1` [3-[(4-{[2-cyano-3-(pyridin-4-yl)carbamimidamido]methyl}benzene)sulfonyl]-N-ethylbenzamide], the results for the 50% inhibitory concentration (IC50) on NAMPT and in the assay on A2780 cells [2] were 5.4 nM and 27 nM, respectively.
For `N#C/N=C(\NCc1ccc(S(=O)(=O)c2ccccc2)cc1)Nc1ccncc1` [3-{[4-(benzenesulfonyl)phenyl]methyl}-2-cyano-1-(pyridin-4-yl)guanidine], the 50% inhibitory concentration (IC50) on NAMPT is 2 nM; with A2780 cells [2], 12 nM.
`CCNC(=O)c1ccc(S(=O)(=O)c2ccc(CNC(=NC#N)Nc3ccncc3)cc2)cc1` [4-[(4-{[2-cyano-3-(pyridin-4-yl)carbamimidamido]methyl}benzene)sulfonyl]-N-ethylbenzamide]: the results for the IC50 on NAMPT and in the assay with A2780 cells [2] were 6.5 nM and 65.8 nM, respectively.
As to `CNC(=O)c1ccc(S(=O)(=O)c2ccc(CNC(=NC#N)Nc3ccncc3)cc2)cn1` [5-[(4-{[2-cyano-3-(pyridin-4-yl)carbamimidamido]methyl}benzene)sulfonyl]-N-methylpyridine-2-carboxamide], the IC50 came to 6.5 nM on NAMPT and 27.8 nM with A2780 cells [2].
For `N#C/N=C(\NCc1ccc(S(=O)(=O)c2cccc(Cl)c2)cc1)Nc1ccncc1` [(E)-3-({4-[(3-chlorobenzene)sulfonyl]phenyl}methyl)-2-cyano-1-(pyridin-4-yl)guanidine] the same measures were 2.6 nM and 4.1 nM.
For `N#C/N=C(\NCc1ccc(S(=O)(=O)c2ccccc2)cc1)NCc1cccnc1` [(E)-3-{[4-(benzenesulfonyl)phenyl]methyl}-2-cyano-1-(pyridin-3-ylmethyl)guanidine], the half-maximal inhibitory concentration (IC50) on NAMPT amounted to 17 nM; in the assay with A2780 cells [2] it was 678 nM.
On to `N#C/N=C(\NCCCCCCOc1ccc(Cl)cc1)Nc1ccncc1` [CHS-828], for which the cell growth result in the assay with tumor cell lines is “potently inhibits cell growth”.
Take `O=C(/C=C/c1cccnc1)NCCCCC1CCN(C(=O)c2ccccc2)CC1` [FK866, (E)-N-[4-(1-benzoylpiperidin-4-yl)butyl]-3-(pyridine-3-yl)-acrylamide]: the “activities in tumor model” value in assay [3] was “anti-tumor, antimetastatic, and anti-angiogenic activities”. Besides, the “effect on MNNG-induced cell death” value in the assay on THP-1 leukemia cell line and in the assay with K562 leukemia cell line was “chemosensitizing effect” in each case. In the assay on HepG2 cells, the apoptosis result is “induces apoptosis”. Moreover, in the assay on mouse mammary carcinoma, the tumor growth result is given as “induces a delay in tumor growth”.
